# Measurements published in US9113629B2, “4-amino-6-(4-substituted-phenyl)-picolinates and 6-amino-2-(4-substituted-phenyl)-pyrimidine-4-carboxylates and their use as herbicides” (DOW AGROSCIENCES LLC, priority 2013, dated 2015).
# System: Key Broadleaf Weed and Crop Species
# Assay: Post-emergent Test II herbicidal activity (Table 5)
# Type: in vivo
# Details: post-emergence, 336 h; ABUTH: velvetleaf (Abutilon theophrasti); 70 g ai/ha; post-emergent; 14 days after application; read-out: Visual Growth Reduction (%) 14 Days After Application ABUTH
# In short: (§1)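 Post-emergence foliar spray, 187 L/ha, track sprayer at 43 cm above canopy. Carrier: acetone/water/IPA/DMSO/Atplus 411F/Triton X-155. Plants at 1st–2nd true leaf; subirrigated afterwards; % injury scored visually at 14 d.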
row,Structure (SMILES),pest or weed control at 70 g/ha [%]
1,"COC(=O)c1nc(-c2cc(F)c(I)cc2F)c(F)c(N)c1Cl [Compound 55, methyl 4-amino-3-chloro-6-(2,5-difluoro-4-iodophenyl)-5-fluoropicolinate]",95 to 100

# Same assay, conditions: post-emergence, 336 h; ABUTH: velvetleaf (Abutilon theophrasti); 140 g ai/ha; post-emergent; 14 days after application; read-out: Visual Growth Reduction (%) 14 Days After Application ABUTH
row,Structure (SMILES),pest or weed control at 140 g/ha [%]
1,"COC(=O)c1nc(-c2cc(F)c(I)cc2F)c(F)c(N)c1Cl [Compound 55, methyl 4-amino-3-chloro-6-(2,5-difluoro-4-iodophenyl)-5-fluoropicolinate]",95 to 100

# Same assay, conditions: post-emergence, 336 h; AMARE: redroot pigweed (Amaranthus retroflexus); 70 g ai/ha; post-emergent; 14 days after application; read-out: Visual Growth Reduction (%) 14 Days After Application AMARE
row,Structure (SMILES),pest or weed control at 70 g/ha [%]
1,"COC(=O)c1nc(-c2cc(F)c(I)cc2F)c(F)c(N)c1Cl [Compound 55, methyl 4-amino-3-chloro-6-(2,5-difluoro-4-iodophenyl)-5-fluoropicolinate]",95 to 100

# Same assay, conditions: post-emergence, 336 h; AMARE: redroot pigweed (Amaranthus retroflexus); 140 g ai/ha; post-emergent; 14 days after application; read-out: Visual Growth Reduction (%) 14 Days After Application AMARE
row,Structure (SMILES),pest or weed control at 140 g/ha [%]
1,"COC(=O)c1nc(-c2cc(F)c(I)cc2F)c(F)c(N)c1Cl [Compound 55, methyl 4-amino-3-chloro-6-(2,5-difluoro-4-iodophenyl)-5-fluoropicolinate]",95 to 100

# Same assay, conditions: post-emergence, 336 h; BRSNN: oilseed-rape, canola (Brassica napus); 70 g ai/ha; post-emergent; 14 days after application; read-out: Visual Growth Reduction (%) 14 Days After Application BRSNN
row,Structure (SMILES),pest or weed control at 70 g/ha [%]
1,"COC(=O)c1nc(-c2cc(F)c(I)cc2F)c(F)c(N)c1Cl [Compound 55, methyl 4-amino-3-chloro-6-(2,5-difluoro-4-iodophenyl)-5-fluoropicolinate]",95 to 100

# Same assay, conditions: post-emergence, 336 h; BRSNN: oilseed-rape, canola (Brassica napus); 140 g ai/ha; post-emergent; 14 days after application; read-out: Visual Growth Reduction (%) 14 Days After Application BRSNN
row,Structure (SMILES),pest or weed control at 140 g/ha [%]
1,"COC(=O)c1nc(-c2cc(F)c(I)cc2F)c(F)c(N)c1Cl [Compound 55, methyl 4-amino-3-chloro-6-(2,5-difluoro-4-iodophenyl)-5-fluoropicolinate]",95 to 100

# Same assay, conditions: post-emergence, 336 h; CHEAL: lambsquarters (Chenopodium album); 70 g ai/ha; post-emergent; 14 days after application; read-out: Visual Growth Reduction (%) 14 Days After Application CHEAL
row,Structure (SMILES),pest or weed control at 70 g/ha [%]
1,"COC(=O)c1nc(-c2cc(F)c(I)cc2F)c(F)c(N)c1Cl [Compound 55, methyl 4-amino-3-chloro-6-(2,5-difluoro-4-iodophenyl)-5-fluoropicolinate]",95 to 100

# Same assay, conditions: post-emergence, 336 h; CHEAL: lambsquarters (Chenopodium album); 140 g ai/ha; post-emergent; 14 days after application; read-out: Visual Growth Reduction (%) 14 Days After Application CHEAL
row,Structure (SMILES),pest or weed control at 140 g/ha [%]
1,"COC(=O)c1nc(-c2cc(F)c(I)cc2F)c(F)c(N)c1Cl [Compound 55, methyl 4-amino-3-chloro-6-(2,5-difluoro-4-iodophenyl)-5-fluoropicolinate]",95 to 100

# Same assay, conditions: post-emergence, 336 h; EPHHL: wild poinsettia (Euphorbia heterophylla); 70 g ai/ha; post-emergent; 14 days after application; read-out: Visual Growth Reduction (%) 14 Days After Application EPHHL
row,Structure (SMILES),pest or weed control at 70 g/ha [%]
1,"COC(=O)c1nc(-c2cc(F)c(I)cc2F)c(F)c(N)c1Cl [Compound 55, methyl 4-amino-3-chloro-6-(2,5-difluoro-4-iodophenyl)-5-fluoropicolinate]",95 to 100

# Same assay, conditions: post-emergence, 336 h; EPHHL: wild poinsettia (Euphorbia heterophylla); 140 g ai/ha; post-emergent; 14 days after application; read-out: Visual Growth Reduction (%) 14 Days After Application EPHHL
row,Structure (SMILES),pest or weed control at 140 g/ha [%]
1,"COC(=O)c1nc(-c2cc(F)c(I)cc2F)c(F)c(N)c1Cl [Compound 55, methyl 4-amino-3-chloro-6-(2,5-difluoro-4-iodophenyl)-5-fluoropicolinate]",95 to 100

# Same assay, conditions: post-emergence, 336 h; HELAN: sunflower (Helianthus annuus); 70 g ai/ha; post-emergent; 14 days after application; read-out: Visual Growth Reduction (%) 14 Days After Application HELAN
row,Structure (SMILES),pest or weed control at 70 g/ha [%]
1,"COC(=O)c1nc(-c2cc(F)c(I)cc2F)c(F)c(N)c1Cl [Compound 55, methyl 4-amino-3-chloro-6-(2,5-difluoro-4-iodophenyl)-5-fluoropicolinate]",95 to 100

# Same assay, conditions: post-emergence, 336 h; HELAN: sunflower (Helianthus annuus); 140 g ai/ha; post-emergent; 14 days after application; read-out: Visual Growth Reduction (%) 14 Days After Application HELAN
row,Structure (SMILES),pest or weed control at 140 g/ha [%]
1,"COC(=O)c1nc(-c2cc(F)c(I)cc2F)c(F)c(N)c1Cl [Compound 55, methyl 4-amino-3-chloro-6-(2,5-difluoro-4-iodophenyl)-5-fluoropicolinate]",95 to 100

# Same assay, conditions: post-emergence, 336 h; VIOTR: wild pansy (Viola tricolor); 70 g ai/ha; post-emergent; 14 days after application; read-out: Visual Growth Reduction (%) 14 Days After Application VIOTR
row,Structure (SMILES),pest or weed control at 70 g/ha [%]
1,"COC(=O)c1nc(-c2cc(F)c(I)cc2F)c(F)c(N)c1Cl [Compound 55, methyl 4-amino-3-chloro-6-(2,5-difluoro-4-iodophenyl)-5-fluoropicolinate]",95 to 100

# Same assay, conditions: post-emergence, 336 h; VIOTR: wild pansy (Viola tricolor); 140 g ai/ha; post-emergent; 14 days after application; read-out: Visual Growth Reduction (%) 14 Days After Application VIOTR
row,Structure (SMILES),pest or weed control at 140 g/ha [%]
1,"COC(=O)c1nc(-c2cc(F)c(I)cc2F)c(F)c(N)c1Cl [Compound 55, methyl 4-amino-3-chloro-6-(2,5-difluoro-4-iodophenyl)-5-fluoropicolinate]",95 to 100

# System: Key Grass and Sedge Weeds as well as Grass Crops
# Assay: Post-emergent Test II herbicidal activity (Table 6)
# Type: in vivo
# Details: Triticum aestivum, post-emergence, 336 h, TRZSS (wheat), application rate 140 g ai/ha, read-out: Visual Growth Reduction (%) 14 Days After Application, TRZSS
# In short: as §1
row,Structure (SMILES),pest or weed control at 140 g/ha [%]
1,"COC(=O)c1nc(-c2cc(F)c(I)cc2F)c(F)c(N)c1Cl [Compound 55, methyl 4-amino-3-chloro-6-(2,5-difluoro-4-iodophenyl)-5-fluoropicolinate]",95 to 100

# Same assay, conditions: post-emergence, 336 h, CYPES: yellow nutsedge (Cyperus esculentus), application rate 70 g ai/ha, read-out: Visual Growth Reduction (%) 14 Days After Application, CYPES
row,Structure (SMILES),pest or weed control at 70 g/ha [%]
1,"COC(=O)c1nc(-c2cc(F)c(I)cc2F)c(F)c(N)c1Cl [Compound 55, methyl 4-amino-3-chloro-6-(2,5-difluoro-4-iodophenyl)-5-fluoropicolinate]",95 to 100

# Same assay, conditions: post-emergence, 336 h, CYPES: yellow nutsedge (Cyperus esculentus), application rate 140 g ai/ha, read-out: Visual Growth Reduction (%) 14 Days After Application, CYPES
row,Structure (SMILES),pest or weed control at 140 g/ha [%]
1,"COC(=O)c1nc(-c2cc(F)c(I)cc2F)c(F)c(N)c1Cl [Compound 55, methyl 4-amino-3-chloro-6-(2,5-difluoro-4-iodophenyl)-5-fluoropicolinate]",95 to 100

# Same assay, conditions: post-emergence, 336 h, DIGSA: crabgrass (Digitaria sanguinalis), application rate 70 g ai/ha, read-out: Visual Growth Reduction (%) 14 Days After Application, DIGSA
row,Structure (SMILES),pest or weed control at 70 g/ha [%]
1,"COC(=O)c1nc(-c2cc(F)c(I)cc2F)c(F)c(N)c1Cl [Compound 55, methyl 4-amino-3-chloro-6-(2,5-difluoro-4-iodophenyl)-5-fluoropicolinate]",85 to 94

# Same assay, conditions: post-emergence, 336 h, DIGSA: crabgrass (Digitaria sanguinalis), application rate 140 g ai/ha, read-out: Visual Growth Reduction (%) 14 Days After Application, DIGSA
row,Structure (SMILES),pest or weed control at 140 g/ha [%]
1,"COC(=O)c1nc(-c2cc(F)c(I)cc2F)c(F)c(N)c1Cl [Compound 55, methyl 4-amino-3-chloro-6-(2,5-difluoro-4-iodophenyl)-5-fluoropicolinate]",85 to 94

# Same assay, conditions: post-emergence, 336 h, ECHCG: barnyardgrass (Echinochloa crus-galli), application rate 70 g ai/ha, read-out: Visual Growth Reduction (%) 14 Days After Application, ECHCG
row,Structure (SMILES),pest or weed control at 70 g/ha [%]
1,"COC(=O)c1nc(-c2cc(F)c(I)cc2F)c(F)c(N)c1Cl [Compound 55, methyl 4-amino-3-chloro-6-(2,5-difluoro-4-iodophenyl)-5-fluoropicolinate]",95 to 100

# Same assay, conditions: post-emergence, 336 h, ECHCG: barnyardgrass (Echinochloa crus-galli), application rate 140 g ai/ha, read-out: Visual Growth Reduction (%) 14 Days After Application, ECHCG
row,Structure (SMILES),pest or weed control at 140 g/ha [%]
1,"COC(=O)c1nc(-c2cc(F)c(I)cc2F)c(F)c(N)c1Cl [Compound 55, methyl 4-amino-3-chloro-6-(2,5-difluoro-4-iodophenyl)-5-fluoropicolinate]",95 to 100

# Same assay, conditions: post-emergence, 336 h, ORYSA: rice (Oryza sativa), application rate 70 g ai/ha, read-out: Visual Growth Reduction (%) 14 Days After Application, ORYSA
row,Structure (SMILES),pest or weed control at 70 g/ha [%]
1,"COC(=O)c1nc(-c2cc(F)c(I)cc2F)c(F)c(N)c1Cl [Compound 55, methyl 4-amino-3-chloro-6-(2,5-difluoro-4-iodophenyl)-5-fluoropicolinate]",0 to 29

# Same assay, conditions: post-emergence, 336 h, ORYSA: rice (Oryza sativa), application rate 140 g ai/ha, read-out: Visual Growth Reduction (%) 14 Days After Application, ORYSA
row,Structure (SMILES),pest or weed control at 140 g/ha [%]
1,"COC(=O)c1nc(-c2cc(F)c(I)cc2F)c(F)c(N)c1Cl [Compound 55, methyl 4-amino-3-chloro-6-(2,5-difluoro-4-iodophenyl)-5-fluoropicolinate]",0 to 29

# Same assay, conditions: post-emergence, 336 h, SETFA: giant foxtail (Setaria faberi), application rate 70 g ai/ha, read-out: Visual Growth Reduction (%) 14 Days After Application, SETFA
row,Structure (SMILES),pest or weed control at 70 g/ha [%]
1,"COC(=O)c1nc(-c2cc(F)c(I)cc2F)c(F)c(N)c1Cl [Compound 55, methyl 4-amino-3-chloro-6-(2,5-difluoro-4-iodophenyl)-5-fluoropicolinate]",95 to 100

# Same assay, conditions: post-emergence, 336 h, SETFA: giant foxtail (Setaria faberi), application rate 140 g ai/ha, read-out: Visual Growth Reduction (%) 14 Days After Application, SETFA
row,Structure (SMILES),pest or weed control at 140 g/ha [%]
1,"COC(=O)c1nc(-c2cc(F)c(I)cc2F)c(F)c(N)c1Cl [Compound 55, methyl 4-amino-3-chloro-6-(2,5-difluoro-4-iodophenyl)-5-fluoropicolinate]",95 to 100

# Same assay, conditions: post-emergence, 336 h, SORVU: grain sorghum (Sorghum vulgare), application rate 70 g ai/ha, read-out: Visual Growth Reduction (%) 14 Days After Application, SORVU
row,Structure (SMILES),pest or weed control at 70 g/ha [%]
1,"COC(=O)c1nc(-c2cc(F)c(I)cc2F)c(F)c(N)c1Cl [Compound 55, methyl 4-amino-3-chloro-6-(2,5-difluoro-4-iodophenyl)-5-fluoropicolinate]",85 to 94

# Same assay, conditions: post-emergence, 336 h, SORVU: grain sorghum (Sorghum vulgare), application rate 140 g ai/ha, read-out: Visual Growth Reduction (%) 14 Days After Application, SORVU
row,Structure (SMILES),pest or weed control at 140 g/ha [%]
1,"COC(=O)c1nc(-c2cc(F)c(I)cc2F)c(F)c(N)c1Cl [Compound 55, methyl 4-amino-3-chloro-6-(2,5-difluoro-4-iodophenyl)-5-fluoropicolinate]",95 to 100

# Same assay, conditions: post-emergence, 336 h, ZEAMX: maize, corn (Zea mays), application rate 70 g ai/ha, read-out: Visual Growth Reduction (%) 14 Days After Application, ZEAMX
row,Structure (SMILES),pest or weed control at 70 g/ha [%]
1,"COC(=O)c1nc(-c2cc(F)c(I)cc2F)c(F)c(N)c1Cl [Compound 55, methyl 4-amino-3-chloro-6-(2,5-difluoro-4-iodophenyl)-5-fluoropicolinate]",60 to 74

# Same assay, conditions: post-emergence, 336 h, ZEAMX: maize, corn (Zea mays), application rate 140 g ai/ha, read-out: Visual Growth Reduction (%) 14 Days After Application, ZEAMX
row,Structure (SMILES),pest or weed control at 140 g/ha [%]
1,"COC(=O)c1nc(-c2cc(F)c(I)cc2F)c(F)c(N)c1Cl [Compound 55, methyl 4-amino-3-chloro-6-(2,5-difluoro-4-iodophenyl)-5-fluoropicolinate]",85 to 94

# System: not given
# Assay: not given
# Details: not given
row,melting point [°C],Structure (SMILES)
1,142 to 144,"COC(=O)c1nc(-c2cc(F)c(I)cc2F)c(F)c(N)c1Cl [Compound 55, methyl 4-amino-3-chloro-6-(2,5-difluoro-4-iodophenyl)-5-fluoropicolinate]"
